ChEMBL document CHEMBL6078640, “Trivalent oleanolic acid-glucose conjugates: Synthesis and efficacy against Influenza A virus” (Eur J Med Chem, 2024)

Experiments:
Influenza A virus [1] = experiment: Antiviral activity against Influenza A virus H1N1 infected in MDCK cells assessed as inhibition of viral growth at 100 uM relative to control; format: functional
Influenza A virus [2] = experiment: Antiviral activity against influenza A virus A/WSN/33(H1N1) infected in MDCK cells assessed as inhibition of viral-induced cytopathic effect pretreated with cells followed by viral infection and measured after 40 hrs by fluorescence based microplate reader analysis; format: functional, organism-based
[3] = Cytotoxicity against dog MDCK cells assessed as reduction in cell viability incubated for 40 hrs by celltiter-glo assay; format: toxicity, cell-based, Canis lupus familiaris
MDCK = experiment: Cytotoxicity against dog MDCK cells assessed as reduction in cell viability at 100 uM incubated for 40 hrs by celltiter-glo assay; format: toxicity, cell-based, Canis lupus familiaris
[4] = Selectivity index, ratio of CC50 for dog MDCK cells to IC50 for influenza A virus A/WSN/33(H1N1) infected in MDCK cells; format: toxicity, cell-based; conditions: read-out: Selectivity Index

SMILES | inhibition at 100 µM (Influenza A virus [1]) | IC50 (Influenza A virus [2]) | CC50 at 40 h [3] | Activity (MDCK) | selectivity ratio [4]
CC1(C)CC[C@]2(C(=O)NCc3cn([C@@H]4O[C@H](CO)[C@@H](O)[C@H](O)[C@H]4O)nn3)CC[C@]3(C)C(=CC[C@@H]4[C@@]5(C)CC[C@H](OC(=O)NCCCCCc6cn(Cc7cc(Cn8cc(CCCCCNC(=O)O[C@H]9CC[C@]%10(C)[C@H]%11CC=C%12[C@@H]%13CC(C)(C)CC[C@]%13(C(=O)NCc%13cn([C@@H]%14O[C@H](CO)[C@@H](O)[C@H](O)[C@H]%14O)nn%13)CC[C@@]%12(C)[C@]%11(C)CC[C@H]%10C9(C)C)nn8)cc(Cn8cc(CCCCCNC(=O)O[C@H]9CC[C@]%10(C)[C@H]%11CC=C%12[C@@H]%13CC(C)(C)CC[C@]%13(C(=O)NCc%13cn([C@@H]%14O[C@H](CO)[C@@H](O)[C@H](O)[C@H]%14O)nn%13)CC[C@@]%12(C)[C@]%11(C)CC[C@H]%10C9(C)C)nn8)c7)nn6)C(C)(C)[C@@H]5CC[C@]43C)[C@@H]2C1 | > 75% | 72.9 µM | > 100 µM | Non-toxic | > 1.37
CC(=O)OC[C@H]1O[C@@H](n2cc(CNC(=O)[C@]34CCC(C)(C)C[C@H]3C3=CC[C@@H]5[C@@]6(C)CC[C@H](OC(=O)NCCCc7cn(Cc8cc(Cn9cc(CCCNC(=O)O[C@H]%10CC[C@]%11(C)[C@H]%12CC=C%13[C@@H]%14CC(C)(C)CC[C@]%14(C(=O)NCc%14cn([C@@H]%15O[C@H](COC(C)=O)[C@@H](OC(C)=O)[C@H](OC(C)=O)[C@H]%15OC(C)=O)nn%14)CC[C@@]%13(C)[C@]%12(C)CC[C@H]%11C%10(C)C)nn9)cc(Cn9cc(CCCNC(=O)O[C@H]%10CC[C@]%11(C)[C@H]%12CC=C%13[C@@H]%14CC(C)(C)CC[C@]%14(C(=O)NCc%14cn([C@@H]%15O[C@H](COC(C)=O)[C@@H](OC(C)=O)[C@H](OC(C)=O)[C@H]%15OC(C)=O)nn%14)CC[C@@]%13(C)[C@]%12(C)CC[C@H]%11C%10(C)C)nn9)c8)nn7)C(C)(C)[C@@H]6CC[C@@]5(C)[C@]3(C)CC4)nn2)[C@H](OC(C)=O)[C@@H](OC(C)=O)[C@@H]1OC(C)=O | > 75% | 6.39 µM | > 100 µM | Non-toxic | > 15.6
CC(=O)OC[C@H]1O[C@@H](n2cc(CNC(=O)[C@]34CCC(C)(C)C[C@H]3C3=CC[C@@H]5[C@@]6(C)CC[C@H](OC(=O)NCCc7cn(CC(CO)(Cn8cc(CCNC(=O)O[C@H]9CC[C@]%10(C)[C@H]%11CC=C%12[C@@H]%13CC(C)(C)CC[C@]%13(C(=O)NCc%13cn([C@@H]%14O[C@H](COC(C)=O)[C@@H](OC(C)=O)[C@H](OC(C)=O)[C@H]%14OC(C)=O)nn%13)CC[C@@]%12(C)[C@]%11(C)CC[C@H]%10C9(C)C)nn8)Cn8cc(CCNC(=O)O[C@H]9CC[C@]%10(C)[C@H]%11CC=C%12[C@@H]%13CC(C)(C)CC[C@]%13(C(=O)NCc%13cn([C@@H]%14O[C@H](COC(C)=O)[C@@H](OC(C)=O)[C@H](OC(C)=O)[C@H]%14OC(C)=O)nn%13)CC[C@@]%12(C)[C@]%11(C)CC[C@H]%10C9(C)C)nn8)nn7)C(C)(C)[C@@H]6CC[C@@]5(C)[C@]3(C)CC4)nn2)[C@H](OC(C)=O)[C@@H](OC(C)=O)[C@@H]1OC(C)=O | > 75% | 10.3 µM | > 100 µM | Non-toxic | > 9.69
